Literature values in patent US20040058969A1, “Novel epothilone derivatives, method for the preparation thereof and their pharmaceutical use” (priority 2000, published 2004).

System: P-glycoprotein-forming multiresistant tumor lines
Settings: in vitro, relative to taxol

SMILES	activity against P-glycoprotein-forming multiresistant tumor lines in comparison to taxol
C/C(=C\c1csc(C)n1)[C@@H]1C[C@@H]2O[C@]2(C)CCC[C@H](C)[C@H](O)[C@@H](C)C(=O)C(C)(C)[C@@H](O)CC(=O)O1 [Epothilone B, epothilone B]	significantly higher activity
C/C(=C\c1csc(C)n1)[C@@H]1C[C@@H]2O[C@@H]2CCC[C@H](C)[C@H](O)[C@@H](C)C(=O)C(C)(C)[C@@H](O)CC(=O)O1 [Epothilone A, epothilone A]	significantly higher activity
